Assay results published in patent US20100285959A1, “HERBICIDAL MIXTURES” (priority 2006, published 2010).

Columns and labels:
[1] = test system: ivyleaf morningglory (IPOHE); assay: Test 26 field trial, postemergence; type: in vivo, Ipomoea hederacea; set-up: scale not given here
From the text: (§1) Corn seeds (hybrid ‘Pioneer 31G96’) were planted in mid spring season, 3.8 cm deep in a silt loam soil having 2% organic matter and a pH of 6.6. Plots were 6.1 m long by 3.0 m wide with rows spaced 76 cm apart. Seeds were spaced 15 cm apart within the rows. The field was managed using conventional tillage practices. […] All treatments also included a surfactant. […] Some of the weed species could not be evaluated at every timing. […] Results are the means of the three replicates.

corn (ZEAMD) = assay: Test 26 field trial, postemergence; type: in vivo, Zea mays ssp. indentata; conditions: hybrid Pioneer 31G96, Zea mays ssp. indentata (corn), in vivo
From the text: as §1

giant foxtail (SETFA) = assay: Test 26 field trial, postemergence; type: in vivo, Setaria faberi; set-up: scale not given here
From the text: as §1

common ragweed (AMBEL) = assay: Test 26 field trial, postemergence; type: in vivo, Ambrosia artemisiifolia; set-up: scale not given here
From the text: as §1

velvetleaf (ABUTH) = assay: Test 26 field trial, postemergence; type: in vivo, Abutilon theophrasti; set-up: scale not given here
From the text: as §1

jimsonweed (DATST) = assay: Test 26 field trial, postemergence; type: in vivo, Datura stramonium; conditions: 28 DAA
From the text: as §1

kochia (KCHSC) = assay: Test 27 field trial, postemergence; type: in vivo, Kochia scoparia; set-up: scale not given here; conditions: thifensulfuron-methyl 10 g a.i./ha
From the text: (§2) Wheat seeds (cv. ‘Custer’) were planted in late fall season in a clay loam soil. Plots were 9 m long by 1.8 m wide. The field was managed using conventional tillage practices. […] All treatments also included a surfactant. […] Results are the means of the three replicates.

[2] = test system: Pennsylvania smartweed (POLPY); assay: Test 26 field trial, postemergence; type: in vivo, Polygonum pensylvanicum
From the text: as §1

[3] = test system: common lambsquarters (CHEAL); assay: Test 26 field trial, postemergence; type: in vivo, Chenopodium album; set-up: scale not given here
From the text: as §1

winter wheat (TRZAW) = assay: Test 27 field trial, postemergence; type: in vivo, Triticum aestivum; conditions: cv. Custer, Triticum aestivum (winter wheat), in vivo
From the text: as §2

giant ragweed (AMBTR) = assay: Test 26 field trial, postemergence; type: in vivo, Ambrosia trifida
From the text: as §1

COC(=O)c1sccc1S(=O)(=O)NC(=O)Nc1nc(C)nc(OC)n1 [Thifensulfuron-methyl]
IPOHE Obs ([1]; 14 DAA, 2 g a.i./ha): 57 | IPOHE Obs ([1]; 14 DAA, 4 g a.i./ha): 72 | IPOHE Obs ([1]; 14 DAA, 8 g a.i./ha): 73 | IPOHE Obs ([1]; 28 DAA, 2 g a.i./ha): 17 | IPOHE Obs ([1]; 28 DAA, 4 g a.i./ha): 20 | IPOHE Obs ([1]; 28 DAA, 8 g a.i./ha): 45 | IPOHE Obs ([1]; 56 DAA, 2 g a.i./ha): 0 | IPOHE Obs ([1]; 56 DAA, 4 g a.i./ha): 0 | IPOHE Obs ([1]; 56 DAA, 8 g a.i./ha): 20 | ZEAMD Obs (corn (ZEAMD); 14 days after application): 0 | ZEAMD Obs (corn (ZEAMD); 56 days after application): 0 | SETFA Obs (giant foxtail (SETFA); 28 DAA, 2 g a.i./ha): 87 | SETFA Obs (giant foxtail (SETFA); 28 DAA, 4 g a.i./ha): 88 | SETFA Obs (giant foxtail (SETFA); 28 DAA, 8 g a.i./ha): 82 | SETFA Obs (giant foxtail (SETFA); 56 DAA, 2 g a.i./ha): 0 | SETFA Obs (giant foxtail (SETFA); 56 DAA, 4 g a.i./ha): 23 | SETFA Obs (giant foxtail (SETFA); 56 DAA, 8 g a.i./ha): 13 | AMBEL Obs (common ragweed (AMBEL); 14 DAA, 2 g a.i./ha): 55 | AMBEL Obs (common ragweed (AMBEL); 14 DAA, 4 g a.i./ha): 72 | AMBEL Obs (common ragweed (AMBEL); 14 DAA, 8 g a.i./ha): 76 | AMBEL Obs (common ragweed (AMBEL); 28 DAA, 2 g a.i./ha): 23 | AMBEL Obs (common ragweed (AMBEL); 28 DAA, 4 g a.i./ha): 53 | AMBEL Obs (common ragweed (AMBEL); 28 DAA, 8 g a.i./ha): 43 | AMBEL Obs (common ragweed (AMBEL); 56 DAA, 2 g a.i./ha): 0 | AMBEL Obs (common ragweed (AMBEL); 56 DAA, 4 g a.i./ha): 17 | AMBEL Obs (common ragweed (AMBEL); 56 DAA, 8 g a.i./ha): 25 | ABUTH Obs (velvetleaf (ABUTH); 14 DAA, 2 g a.i./ha): 53 | ABUTH Obs (velvetleaf (ABUTH); 14 DAA, 4 g a.i./ha): 60 | ABUTH Obs (velvetleaf (ABUTH); 14 DAA, 8 g a.i./ha): 55 | ABUTH Obs (velvetleaf (ABUTH); 28 DAA, 2 g a.i./ha): 75 | ABUTH Obs (velvetleaf (ABUTH); 28 DAA, 4 g a.i./ha): 79 | ABUTH Obs (velvetleaf (ABUTH); 28 DAA, 8 g a.i./ha): 87 | ABUTH Obs (velvetleaf (ABUTH); 56 DAA, 2 g a.i./ha): 33 | ABUTH Obs (velvetleaf (ABUTH); 56 DAA, 4 g a.i./ha): 30 | ABUTH Obs (velvetleaf (ABUTH); 56 DAA, 8 g a.i./ha): 73 | DATST Obs (jimsonweed (DATST); 2 g a.i./ha): 40 | DATST Obs (jimsonweed (DATST); 4 g a.i./ha): 87 | DATST Obs (jimsonweed (DATST); 8 g a.i./ha): 83 | KCHSC Obs (kochia (KCHSC); 16 DAA): 0 | KCHSC Obs (kochia (KCHSC); 28 DAA): 0 | KCHSC Obs (kochia (KCHSC); 49 DAA): 0 | POLPY Obs ([2]; 14 DAA, 8 g a.i./ha): 0 | POLPY Obs ([2]; 28 DAA, 2 g a.i./ha): 73 | POLPY Obs ([2]; 28 DAA, 4 g a.i./ha): 100 | POLPY Obs ([2]; 28 DAA, 8 g a.i./ha): 100 | CHEAL Obs ([3]; 14 DAA, 2 g a.i./ha): 65 | CHEAL Obs ([3]; 14 DAA, 4 g a.i./ha): 83 | CHEAL Obs ([3]; 14 DAA, 8 g a.i./ha): 80 | CHEAL Obs ([3]; 28 DAA, 2 g a.i./ha): 90 | CHEAL Obs ([3]; 28 DAA, 4 g a.i./ha): 93 | CHEAL Obs ([3]; 28 DAA, 8 g a.i./ha): 98 | CHEAL Obs ([3]; 56 DAA, 2 g a.i./ha): 27 | CHEAL Obs ([3]; 56 DAA, 4 g a.i./ha): 50 | CHEAL Obs ([3]; 56 DAA, 8 g a.i./ha): 93 | TRZAW Obs (winter wheat (TRZAW); 16 days after application): 0 | TRZAW Obs (winter wheat (TRZAW); 28 days after application): 0 | TRZAW Obs (winter wheat (TRZAW); 49 days after application): 0 | AMBTR Obs (giant ragweed (AMBTR); 14 DAA, 2 g a.i./ha): 75 | AMBTR Obs (giant ragweed (AMBTR); 28 DAA, 2 g a.i./ha): 5 | AMBTR Obs (giant ragweed (AMBTR); 28 DAA, 4 g a.i./ha): 5
